Assay results published in ChEMBL document CHEMBL4613223, “Structure-based design of guanosine analogue inhibitors targeting GTP cyclohydrolase IB towards a new class of antibiotics” (Bioorg Med Chem Lett, 2020).

Assays:
[1] = Inhibition of Thermus thermophilus HB8 GCYH1A expressed in Escherichia coli BL21 (DE3) using GTP as substrate incubated for 60 to 180 mins by spectrofluorimetric analysis
[2] = Inhibition of recombinant full-length Neisseria gonorrhoeae N-terminal His6-tagged GCYH1B expressed in Escherichia coli BL21 (DE3) using GTP as substrate incubated for 50 to 60 mins by fluorescence based assay
[3] = Inhibition of full-length human GCYH1A expressed in Escherichia coli using GTP as substrate incubated for 30 mins by fluorescence based assay
[4] = Inhibition of Neisseria gonorrhoeae GCYH1B

SMILES	Ki [1] [µM]	Ki [2] [µM]	IC50 [3] [µM]	IC50 [4] [µM]
Nc1nc2c([nH]c(=O)n2[C@@H]2O[C@H](CO[P@@](=O)(O)O[P@@](=O)(O)OP(=O)(O)O)[C@@H](O)[C@H]2O)c(=O)[nH]1	0.0054	0.15		
Nc1nc(OC[C@@H](O)CO)c2[nH]c(=O)n([C@@H]3O[C@H](CO)[C@@H](O)[C@H]3O)c2n1			372	164
Nc1nc(OC[C@H](O)CO)c2[nH]c(=O)n([C@@H]3O[C@H](CO)[C@@H](O)[C@H]3O)c2n1			409	134
COc1nc2c(=O)[nH]c(N)nc2n1[C@@H]1O[C@H](CO)[C@@H](O)[C@H]1O				372
Nc1nc(OCCO)c2[nH]c(=O)n([C@@H]3O[C@H](CO)[C@@H](O)[C@H]3O)c2n1			221	413
